Data set [1] is described as follows: Tmax in Sprague-Dawley rat at 3 mg/kg, po measured upto 24 hrs by LC-MS analysis. Conditions: in vivo. It counts as ADME, organism-based.
The target in data set [2] is Receptor-type tyrosine-protein kinase FLT3 (Homo sapiens, UniProt P36888). Nature of the data set: Inhibition of recombinant human FLT3 (564 to end residues) using EAIYAAPFAKKK as substrate incubated for 40 mins in presence of [gamma-33ATP] by scintillation counting based radiometry assay.
Data set [3] in a line: Tmax in ICR mouse at 3 mg/kg, po measured upto 24 hrs by LC-MS analysis. Type of data set: ADME, organism-based. Conditions: in vivo.
A short description of data set [4]: AUC(0 to t) in ICR mouse at 3 mg/kg, po measured upto 24 hrs by LC-MS analysis. Type of data set: ADME, organism-based. On the set-up: route oral, dose 3 mg/kg, time <=24. The note with it: in vivo.
In a further data set the test system is BT-549. As to the kind of experiment: Antiproliferative activity against human BT-549 cells incubated for 72 hrs by SRB or CCK8 assay. It counts as functional, cell-based. The note with it: BT-549, 72 h. (Tetrazolium dyes change colour on reduction, which living cells bring about.)
Data set [5] concerns the target T1, Tyrosine-protein kinase receptor UFO (Mus musculus) (UniProt Q00993).
T1 sequence (whole entry): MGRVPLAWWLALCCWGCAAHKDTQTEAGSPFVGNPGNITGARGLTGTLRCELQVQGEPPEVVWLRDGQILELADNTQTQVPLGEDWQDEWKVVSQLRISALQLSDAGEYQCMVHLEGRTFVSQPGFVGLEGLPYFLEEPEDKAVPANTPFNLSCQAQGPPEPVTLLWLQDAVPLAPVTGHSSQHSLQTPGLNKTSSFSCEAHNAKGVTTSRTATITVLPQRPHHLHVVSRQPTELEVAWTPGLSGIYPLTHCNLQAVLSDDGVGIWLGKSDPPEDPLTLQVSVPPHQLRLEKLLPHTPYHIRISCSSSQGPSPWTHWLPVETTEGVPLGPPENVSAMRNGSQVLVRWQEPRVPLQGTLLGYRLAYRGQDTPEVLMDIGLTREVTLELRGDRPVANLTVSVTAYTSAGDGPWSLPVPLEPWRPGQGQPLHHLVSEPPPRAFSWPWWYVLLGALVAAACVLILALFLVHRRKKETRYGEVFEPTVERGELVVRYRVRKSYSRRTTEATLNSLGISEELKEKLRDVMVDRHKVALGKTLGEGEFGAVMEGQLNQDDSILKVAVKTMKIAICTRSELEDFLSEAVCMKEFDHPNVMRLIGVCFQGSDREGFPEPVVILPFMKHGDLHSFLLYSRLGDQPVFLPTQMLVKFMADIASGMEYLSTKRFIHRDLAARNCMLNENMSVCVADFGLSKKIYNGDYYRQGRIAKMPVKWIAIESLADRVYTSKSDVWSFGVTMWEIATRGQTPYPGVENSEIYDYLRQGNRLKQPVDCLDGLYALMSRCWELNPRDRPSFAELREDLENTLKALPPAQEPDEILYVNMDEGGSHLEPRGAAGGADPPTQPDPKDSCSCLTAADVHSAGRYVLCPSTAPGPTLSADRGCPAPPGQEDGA
As to the kind of experiment: Inhibition of AXL in mouse BaF3/TEL-AXL cells assessed as reduction in Gas6-induced phosphorylation of AKT at 0.5 to 50 nM preincubated for 2 hrs followed by Gas6 stimulation for 15 mins by Western blotting analysis. It counts as cell-based. Conditions: dose 0.5-50 nM. (A western blot detects proteins with antibodies after separation by electrophoresis.)

Data set [6] addresses Tyrosine-protein kinase receptor TYRO3 (Homo sapiens, UniProt Q06418). Nature of the data set: Inhibition of recombinant human RSE (451 to end residues) using KVEKIGEGTYGVVYK as substrate incubated for 40 mins in presence of [gamma33P]ATP by scintillation counting based radiometry assay.
A further data set relates to NCI-H1299. Nature of the data set: Antiproliferative activity against human NCI-H1299 cells at 5 to 125 uM incubated for 72 hrs by SRB or CCK8 assay. Type of data set: functional, cell-based. Conditions: dose 5-125 µM.
In the next data set the test system is HCC827. As to the kind of experiment: Antiproliferative activity against human HCC827 cells incubated for 72 hrs by SRB or CCK8 assay. Type of data set: functional, cell-based. Conditions: HCC827, 72 h.
The target of a further data set is CDK6/cyclin D3 (Homo sapiens, UniProt Q00534). As to the kind of experiment: Inhibition of recombinant full length human CDK6/CyclinD3C using Rb fragment as substrate incubated for 40 mins in presence of [gamma-33ATP] by scintillation counting based radiometry assay. Type of data set: protein-complex assay.
Data set [7] addresses ALK tyrosine kinase receptor (Homo sapiens, UniProt Q9UM73). As to the kind of experiment: Inhibition of human ALK (1058 to end residues) using KKKSPGEYVNIEFG as substrate incubated for 40 mins in presence of [gamma-33ATP] by scintillation counting based radiometry assay.
The target of data set [8] is Hepatocyte growth factor receptor (Homo sapiens, UniProt P08581). Nature of the data set: Inhibition of MET signaling in human EBC1 cells assessed as reduction in phosphorylation of ERK after 2 hrs by Western blotting analysis. It counts as cell-based. The note with it: EBC-1, dose 10-100 nM.
Chain of Hepatocyte growth factor receptor (P08581 whole entry): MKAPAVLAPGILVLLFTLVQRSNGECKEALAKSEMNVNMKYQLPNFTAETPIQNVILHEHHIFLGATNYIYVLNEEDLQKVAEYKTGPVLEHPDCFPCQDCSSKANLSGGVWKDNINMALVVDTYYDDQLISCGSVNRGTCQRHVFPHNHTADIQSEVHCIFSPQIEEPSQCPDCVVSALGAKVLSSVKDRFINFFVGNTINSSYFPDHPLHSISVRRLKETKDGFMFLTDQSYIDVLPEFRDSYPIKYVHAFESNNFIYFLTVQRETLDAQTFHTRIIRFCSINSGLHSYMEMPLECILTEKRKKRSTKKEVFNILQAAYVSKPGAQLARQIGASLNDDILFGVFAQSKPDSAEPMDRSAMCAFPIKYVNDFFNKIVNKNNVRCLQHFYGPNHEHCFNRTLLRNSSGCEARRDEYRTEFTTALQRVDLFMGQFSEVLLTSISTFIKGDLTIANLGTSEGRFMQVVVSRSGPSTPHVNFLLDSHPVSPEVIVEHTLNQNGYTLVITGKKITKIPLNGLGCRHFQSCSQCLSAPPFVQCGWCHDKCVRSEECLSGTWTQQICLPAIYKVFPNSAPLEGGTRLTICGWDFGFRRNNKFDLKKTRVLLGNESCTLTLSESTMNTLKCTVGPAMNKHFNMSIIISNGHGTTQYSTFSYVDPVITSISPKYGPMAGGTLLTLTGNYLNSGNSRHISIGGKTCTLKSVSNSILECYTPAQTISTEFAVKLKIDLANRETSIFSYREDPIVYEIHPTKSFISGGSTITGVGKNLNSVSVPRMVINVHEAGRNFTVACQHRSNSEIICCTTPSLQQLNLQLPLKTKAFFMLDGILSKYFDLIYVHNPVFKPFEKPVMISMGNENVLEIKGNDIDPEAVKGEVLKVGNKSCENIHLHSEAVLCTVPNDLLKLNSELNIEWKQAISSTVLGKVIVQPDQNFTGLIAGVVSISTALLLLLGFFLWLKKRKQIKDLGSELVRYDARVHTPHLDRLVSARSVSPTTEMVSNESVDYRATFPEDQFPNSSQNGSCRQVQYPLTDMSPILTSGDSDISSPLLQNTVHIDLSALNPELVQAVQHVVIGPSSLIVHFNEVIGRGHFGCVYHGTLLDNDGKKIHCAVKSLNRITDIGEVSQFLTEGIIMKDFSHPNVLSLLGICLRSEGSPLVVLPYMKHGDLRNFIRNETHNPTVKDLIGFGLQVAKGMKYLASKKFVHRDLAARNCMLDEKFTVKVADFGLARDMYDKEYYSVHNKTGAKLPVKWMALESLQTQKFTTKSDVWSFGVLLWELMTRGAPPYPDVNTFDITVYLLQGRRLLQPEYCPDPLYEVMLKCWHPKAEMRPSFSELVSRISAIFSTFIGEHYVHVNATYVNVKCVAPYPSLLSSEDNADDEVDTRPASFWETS
The subject of a further data set is U-87 MG. As to the kind of experiment: Antitumor activity against human U-87MG cells xenografted in BALB/c nude mouse assessed as tumor growth inhibition at 5 mg/kg, po administered once daily for 14 days by caliper method. Type of data set: functional, U-87MG ATCC. The note with it: 336 h, time 14 day, read-out: TGI.
The nature of data set [9]: Toxicity in BALB/c nude mouse assessed as reduction in body weight at 100 mg/kg, po administered once daily for 14 days. Type of data set: organism-based. Conditions: in vivo, 336 h, time 14 day.
For data set [10], the target named is T1, Tyrosine-protein kinase receptor UFO (Mus musculus). Nature of the data set: Inhibition of AXL in mouse BaF3/TEL-AXL cells assessed as reduction in phosphorylation of AXL at 1 to 15 nM after 2 hrs by Western blotting analysis. It counts as cell-based. Conditions: dose 1-15 nM.

Calls of active or inactive are those of the source. The rule behind the calls is not given here.

Chain of Receptor-type tyrosine-protein kinase FLT3 (P36888 whole entry): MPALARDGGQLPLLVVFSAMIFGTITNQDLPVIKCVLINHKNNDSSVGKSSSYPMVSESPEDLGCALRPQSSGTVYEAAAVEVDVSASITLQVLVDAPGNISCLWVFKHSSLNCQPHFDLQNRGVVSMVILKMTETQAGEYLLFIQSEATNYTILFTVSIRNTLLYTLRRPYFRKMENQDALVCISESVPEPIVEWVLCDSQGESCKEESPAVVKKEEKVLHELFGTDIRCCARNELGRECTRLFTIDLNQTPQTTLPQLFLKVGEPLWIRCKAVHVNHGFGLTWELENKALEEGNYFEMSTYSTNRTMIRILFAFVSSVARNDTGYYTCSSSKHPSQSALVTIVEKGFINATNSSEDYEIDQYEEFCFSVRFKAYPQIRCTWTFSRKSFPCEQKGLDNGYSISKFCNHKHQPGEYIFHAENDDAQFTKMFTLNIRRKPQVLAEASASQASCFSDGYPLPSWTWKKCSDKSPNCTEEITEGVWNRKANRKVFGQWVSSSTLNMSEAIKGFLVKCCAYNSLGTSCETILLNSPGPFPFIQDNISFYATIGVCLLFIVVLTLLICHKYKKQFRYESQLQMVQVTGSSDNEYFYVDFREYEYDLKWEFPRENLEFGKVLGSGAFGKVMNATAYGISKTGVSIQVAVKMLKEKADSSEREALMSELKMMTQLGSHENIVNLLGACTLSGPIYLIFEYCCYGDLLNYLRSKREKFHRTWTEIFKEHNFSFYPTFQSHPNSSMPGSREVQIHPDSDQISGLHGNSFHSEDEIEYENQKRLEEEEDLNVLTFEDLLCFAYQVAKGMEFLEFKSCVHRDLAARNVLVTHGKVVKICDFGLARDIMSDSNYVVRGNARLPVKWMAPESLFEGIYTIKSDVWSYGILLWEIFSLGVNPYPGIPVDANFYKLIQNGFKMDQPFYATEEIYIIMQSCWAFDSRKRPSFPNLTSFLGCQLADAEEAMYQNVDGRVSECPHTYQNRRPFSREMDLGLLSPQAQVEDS
Chain of ALK tyrosine kinase receptor (Q9UM73 whole entry): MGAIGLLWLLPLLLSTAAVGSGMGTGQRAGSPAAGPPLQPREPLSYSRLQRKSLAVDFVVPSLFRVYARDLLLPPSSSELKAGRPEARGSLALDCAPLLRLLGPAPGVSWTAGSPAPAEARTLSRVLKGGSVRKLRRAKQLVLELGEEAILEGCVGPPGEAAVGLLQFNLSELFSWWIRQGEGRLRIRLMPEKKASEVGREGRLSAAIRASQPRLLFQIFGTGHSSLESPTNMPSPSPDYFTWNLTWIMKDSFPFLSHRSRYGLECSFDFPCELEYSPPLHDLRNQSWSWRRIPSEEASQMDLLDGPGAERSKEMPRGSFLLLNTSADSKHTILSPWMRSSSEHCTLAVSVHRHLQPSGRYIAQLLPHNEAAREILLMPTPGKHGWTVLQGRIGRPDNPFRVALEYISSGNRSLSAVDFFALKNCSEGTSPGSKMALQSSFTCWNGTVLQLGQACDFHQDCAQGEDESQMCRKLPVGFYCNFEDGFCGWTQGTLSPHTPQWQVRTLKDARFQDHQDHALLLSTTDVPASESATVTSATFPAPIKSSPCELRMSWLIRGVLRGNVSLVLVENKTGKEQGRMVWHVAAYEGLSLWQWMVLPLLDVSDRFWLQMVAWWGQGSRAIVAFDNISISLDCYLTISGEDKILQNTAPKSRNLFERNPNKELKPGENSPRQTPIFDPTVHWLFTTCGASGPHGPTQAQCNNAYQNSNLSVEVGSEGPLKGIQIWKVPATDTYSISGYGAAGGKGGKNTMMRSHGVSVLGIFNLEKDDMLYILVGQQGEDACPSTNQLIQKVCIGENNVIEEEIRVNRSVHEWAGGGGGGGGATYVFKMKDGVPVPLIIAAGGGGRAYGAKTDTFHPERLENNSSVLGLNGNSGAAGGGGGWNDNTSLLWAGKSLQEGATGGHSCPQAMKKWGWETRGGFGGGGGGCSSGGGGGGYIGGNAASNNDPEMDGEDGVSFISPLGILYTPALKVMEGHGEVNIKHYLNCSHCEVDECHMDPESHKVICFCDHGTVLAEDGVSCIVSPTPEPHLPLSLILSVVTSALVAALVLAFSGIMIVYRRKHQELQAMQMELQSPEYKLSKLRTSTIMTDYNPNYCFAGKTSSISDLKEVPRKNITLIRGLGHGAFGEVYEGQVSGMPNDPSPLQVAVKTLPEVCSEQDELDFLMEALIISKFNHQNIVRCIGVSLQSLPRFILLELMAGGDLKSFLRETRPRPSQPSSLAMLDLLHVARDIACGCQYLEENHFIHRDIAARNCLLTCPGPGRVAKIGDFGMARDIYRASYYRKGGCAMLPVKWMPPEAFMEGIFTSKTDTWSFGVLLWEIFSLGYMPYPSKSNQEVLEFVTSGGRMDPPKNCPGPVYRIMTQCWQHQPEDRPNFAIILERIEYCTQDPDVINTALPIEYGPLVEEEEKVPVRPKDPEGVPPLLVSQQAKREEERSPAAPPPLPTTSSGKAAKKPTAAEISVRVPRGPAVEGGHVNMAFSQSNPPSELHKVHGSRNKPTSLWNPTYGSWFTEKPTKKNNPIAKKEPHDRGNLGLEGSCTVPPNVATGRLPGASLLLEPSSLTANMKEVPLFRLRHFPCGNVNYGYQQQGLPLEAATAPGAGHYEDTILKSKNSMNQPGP
Chain of Tyrosine-protein kinase receptor TYRO3 (Q06418 whole entry): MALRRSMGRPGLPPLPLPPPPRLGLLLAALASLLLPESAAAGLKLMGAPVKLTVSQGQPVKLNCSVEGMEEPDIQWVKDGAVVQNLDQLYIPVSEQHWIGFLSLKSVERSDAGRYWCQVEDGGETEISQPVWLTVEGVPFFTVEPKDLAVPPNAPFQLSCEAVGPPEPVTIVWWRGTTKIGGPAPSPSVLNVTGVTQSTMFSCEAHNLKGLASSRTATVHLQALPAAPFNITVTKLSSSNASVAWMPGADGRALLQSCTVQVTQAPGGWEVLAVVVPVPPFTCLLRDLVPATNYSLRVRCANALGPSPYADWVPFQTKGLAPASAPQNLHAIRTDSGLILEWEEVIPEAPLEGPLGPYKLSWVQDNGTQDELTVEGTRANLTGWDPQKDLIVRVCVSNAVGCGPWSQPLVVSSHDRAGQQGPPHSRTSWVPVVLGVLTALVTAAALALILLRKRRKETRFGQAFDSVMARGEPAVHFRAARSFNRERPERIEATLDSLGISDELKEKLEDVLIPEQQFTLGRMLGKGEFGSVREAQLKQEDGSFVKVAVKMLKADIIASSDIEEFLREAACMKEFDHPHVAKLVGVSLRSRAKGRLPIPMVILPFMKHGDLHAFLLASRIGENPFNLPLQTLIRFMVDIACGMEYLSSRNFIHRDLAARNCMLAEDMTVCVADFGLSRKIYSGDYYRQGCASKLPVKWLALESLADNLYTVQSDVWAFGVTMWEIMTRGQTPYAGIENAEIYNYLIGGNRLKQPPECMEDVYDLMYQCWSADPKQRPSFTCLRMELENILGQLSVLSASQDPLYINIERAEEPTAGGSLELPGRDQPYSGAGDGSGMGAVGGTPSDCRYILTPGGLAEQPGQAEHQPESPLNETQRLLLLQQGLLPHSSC

For the molecule `CC(C)n1cc(C(=O)Nc2ccc(Oc3ccnc(NC(=O)C4CC4)c3)c(F)c2)c(=O)n(-c2ccc(F)cc2)c1=O`, the Tmax was determined as 1.17 h in [1] and 1.67 h in data set [3]. For the same molecule, the IC50 is over 1 µM in [2]; over 10 µM in the data set on BT-549; 0.001 µM in data set [6]; over 10 µM in the data set with HCC827; over 1 µM on CDK6/cyclin D3; over 1 µM in data set [7]. The AUC(0-t) at 24 h in data set [4] is 24000 ng·h/mL. In addition, the inhibition result in data set [5] and in data set [10] was “Active” throughout. In addition, the result in the data set on NCI-H1299 was inactive. Further, the inhibition entry in [8] is “Dose-Dependent Effect”. In addition, the inhibition in vivo at 5 mg/kg in the data set with U-87 MG worked out at 62.3%. Further, the Activity result in data set [9] is listed as “Non-Toxic”.

The term Tmax denotes the time from dosing to the highest level. The IC50 is the concentration that inhibits the measured activity by half. One may read the AUC(0-t) as the area under the concentration-time curve up to a stated or last time point. High values mean more exposure, low ones less exposure.

Source of the values: ChEMBL document CHEMBL4823249, “Discovery of a Pyrimidinedione Derivative as a Potent and Orally Bioavailable Axl Inhibitor” (J Med Chem, 2021).
